Assay results from US11053205B2, “Phenazine derivatives as antimicrobial agents” (University of Florida Research Foundation, Incorporated, priority 2017, dated 2021).
≈ marks a conversion by molar mass, not a printed value. Where two headings read alike, the source gives them in different places. Marks after values point to notes of the source that are not given here.

Tests used:
MRSA BAA-1707 = assay: MIC, broth microdilution (CLSI); settings: 16 to 18 hours at 37° C.; 0.10 = lowest concentration tested
MRSE 35984 = assay: MIC, broth microdilution (CLSI); settings: 16 to 18 hours at 37° C.
VRE 700221 = assay: MIC, broth microdilution (CLSI); settings: 16 to 18 hours at 37° C.
MRSA-2 biofilms = assay: Calgary Biofilm Device (CBD) assay, MBC/MBEC; settings: for MRSA-2 MBEC: CBD, biofilm eradication; for MBC: Staphylococcus aureus, MRSA, read-out: MRSA-2 MBC
MRSA BAA-1707 biofilms = assay: Calgary Biofilm Device (CBD) assay, MBC/MBEC; settings: for MRSA BAA-1707 MBC / MRSA BAA-1707 MBEC: CBD; for MRSA BAA-1707 MBC: planktonic killing; for MRSA BAA-1707 MBEC: biofilm eradication
MRSE 35984 biofilms = assay: Calgary Biofilm Device (CBD) assay, MBC/MBEC; settings: CBD; for MRSE 35984 MBEC: biofilm eradication; for MRSE 35984 MBC: planktonic killing
VRE 700221 biofilms = assay: Calgary Biofilm Device (CBD) assay, MBC/MBEC; settings: CBD

SMILES | MRSA BAA-1707 MIC (MRSA BAA-1707) | MRSE 35984 MIC (MRSE 35984) | VRE 700221 MIC (VRE 700221) | IC50 (HeLa cells) [µM] | MRSA BAA-1707 MBEC (MRSA BAA-1707 biofilms) [µM] | also measured
CCc1cccc2nc3c(Br)cc(Br)c(O)c3nc12 [Compound 37] | >100 µM | >100 µM | >100 µM |  |  | 
O=C(OCCSSCCOC(=O)c1ccccc1)OCOc1c(Br)cc(Br)c2nc3ccccc3nc12 [Compound 85A] | >100 µM | >100 µM | >100 µM | > 100 |  | Hemolysis at 200 μM (human red blood cells): 1.3%
C[C@H]1c2cccc(O)c2C(=O)C2=C(O)[C@]3(O)C(=O)C(C(N)=O)=C(O)[C@@H](N(C)C)[C@@H]3[C@@H](O)[C@@H]21 [Doxycycline] |  |  |  |  |  | MRSA-2 MBEC (MRSA-2 biofilms): 46.9 µM; MBC (MRSA-2 biofilms): 2 µM (≈ 0.889 µg/mL)
CC(C)(C)c1ccc2nc3c(O)c(Br)cc(Br)c3nc2c1 [55A] |  |  |  | > 100 |  | MRSA-2 MBEC (MRSA-2 biofilms): 3.13 µM
CC1=C(C)C(=O)C(COC(=O)OCOc2c(Br)cc(Br)c3nc4cc(Cl)ccc4nc23)=C(C)C1=O [Compound 87A] | 0.15^a μM |  | 1.56 µM |  |  | MRSA BAA-1707 MBC (MRSA BAA-1707 biofilms): 6.25 µM; MRSE 35984 MBEC (MRSE 35984 biofilms): 25 µM; MRSE 35984 MBC (MRSE 35984 biofilms): 12.5 µM; VRE 700221 MBEC (VRE 700221 biofilms; biofilm eradication): 3.13^c/3.13^c μM; VRE 700221 MBC (VRE 700221 biofilms; planktonic killing): 3.13^c/3.13^c μM
COCCOCCOCCOCCOC(=O)Oc1c(Br)cc(Br)c2nc3cc(Oc4ccccc4)ccc3nc12 [78A] | 0.1 µM |  |  |  |  | 
CCc1cccc2nc3c(Br)cc(Br)c(O)c3nc12 [Compound 58A] | >100 ^ μM | >100 µM | >100 µM |  |  | 
CS(=O)(=O)N1CCN(C(=O)Oc2c(Br)cc(Br)c3nc4ccccc4nc23)C1=O [Compound 31] |  | 0.78 µM | 3.13 µM |  | 75 | 
Cc1cc2nc3c(O)c(Br)cc(Br)c3nc2c(C)c1C [Compound 59A] | 0.59^a μM | 0.1^b μM |  |  | 75 | Hemolysis at 200 μM (human red blood cells): 1.3%; MRSA BAA-1707 MBC (MRSA BAA-1707 biofilms): 150 µM; MRSE 35984 MBEC (MRSE 35984 biofilms): 5 µM; MRSE 35984 MBC (MRSE 35984 biofilms): 25 µM
NC(=O)c1cnccn1 [Pyrazinamide] |  |  |  |  |  | MRSA-2 MBEC (MRSA-2 biofilms): >2000/>2000 μM; MBC (MRSA-2 biofilms): > 2000 µM
Oc1c(Br)cc(Br)c2nc3cc(Oc4ccccc4)ccc3nc12 [Compound 34] | 0.1 µM | 0.1 µM | 0.2 µM |  | 2.35 | 
COCCOCCOCCOCCOC(=O)Oc1c(Br)cc(Br)c2nc3cc(Cl)ccc3nc12 [Compound 77A] | 0.0005^a μM | 0.1^b μM | 0.1^b μM | > 100 |  | Hemolysis at 200 μM (human red blood cells): 1.1%; MRSE 35984 MBEC (MRSE 35984 biofilms): 18.8 µM; MRSE 35984 MBC (MRSE 35984 biofilms): 9.38 µM
Cc1cc(C)c2nc3c(Br)cc(Br)c(O)c3nc2c1 [56A] |  |  |  | > 100 | 4.69 | 
Cc1ccc2nc3c(Br)cc(Br)c(O)c3nc2c1C [Compound 57A] | >100 ^ μM | >100 µM | >100 µM |  |  | 
CCCc1cn(Cc2ccc3nc4c(OC(C)=O)c(Br)cc(Br)c4nc3c2)nn1 [compound 74] |  | 18.8 µM |  |  |  | 
CC(=O)NC[C@H]1CN(c2ccc(N3CCOCC3)c(F)c2)C(=O)O1 [linezolid, reference compound] | 12.5 ^ μM |  |  |  |  | Hemolysis at 200 μM (human red blood cells; human, 1 h, 200 μM, pH 7.2): ≤1%; MBC (MRSA BAA-1707 biofilms; Staphylococcus aureus, read-out: MRSA BAA-1707 MBC): 31.3 µM (≈ 10.6 µg/mL); biofilm eradication activities against MRSA biofilms (MRSA BAA-1707 biofilms; at 2,000 μM (highest concentration tested)): no biofilm eradication activities
CCc1ccc2nc3c(O)c(Br)cc(Br)c3nc2c1 [53A] |  |  |  | > 50 |  | 
COCCOCCOCCOCCOC(=O)Oc1c(Br)cc(Br)c2nc3cc(Oc4ccccc4)ccc3nc12 [Compound 78A] | 0.1^b μM | 0.1^b μM | 0.3^a μM |  | 4.69 | Hemolysis at 200 μM (human red blood cells): ≤1%; MRSA BAA-1707 MBC (MRSA BAA-1707 biofilms): 18.8 µM
OC[C@H]1O[C@@H](Oc2c(Br)cc(Br)c3nc4ccccc4nc23)[C@H](O)[C@@H](O)[C@@H]1O [Compound 28] | >100 µM | >100 µM | >100 µM |  |  | 
CCOc1ccc2nc3c(O)c(Br)cc(Br)c3nc2c1 [Compound 60A] | >100 ^ μM | 18.8^a μM | >100 µM |  |  | 
CCN(CC)c1ccc2nc3c(O)c(Br)cc(Br)c3nc2c1Br [64A] |  |  |  | > 100 | 4.69 | 
Oc1c(Br)cc(Br)c2nc3cc(Oc4ccccc4)ccc3nc12 [63A] | 0.075 µM | 0.1 µM | 0.2 µM | > 100 | 2.35 | 
